{"source": "patent US4707498A", "about": "“Fluorinated diaminoalkyne derivatives” (Merrell Dow Pharmaceuticals Inc., priority 1986, dated 1987)", "origin": "cited, not measured here", "system": "tumor", "details": "MGBG intravenously once or twice week"}
{"smiles": "CC(C=NNC(=N)N)=NNC(=N)N", "note": "[MGBG, methylglyoxal bis(guanylhydrazone)]", "values": [{"measurement": "complete disappearance of the disease (number of treated patients)", "setting": "65 treated patients", "value": "two of the 65"}, {"measurement": "regression of the tumor", "setting": "patients in advanced stages of carcinoma, lymphoma, hepatoma, melanoma, leukemia or sarcoma", "value": "measurable regression of the tumor in many of the patients treated"}]}
